One series relates to Apis mellifera. The following applies: acute, mortality.
The test system of a further series is Bibionidae. The following applies: chronic/long-term; duration: 28 days.
A further series concerns Daphnia magna. The following applies: chronic/long-term; duration: 21 days; reproduction.
The subject of a further series is Folsomia candida. The conditions noted are these: chronic/long-term.
A further series relates to Hypoaspis aculeifer. The following applies: chronic/long-term.
Another series has as its system Pimephales promelas. The following applies: chronic/long-term; duration: 33 days; other.
The subject of another series is Aphidius rhopalosiphi. The series is described as follows: LR50; higher = less toxic. The conditions noted are these: not reported; mortality.
The next series concerns Typhlodromus pyri. The series can be described thus: LR50; higher = less toxic. The conditions noted are these: not reported; mortality.

We go through 1 compound from EPA's ToxValDB 9.5 (doi:10.2903/j.efsa.2015.4032).

In the case of `Cc1cccc2sc3nncn3c12` [2,7,8,9-Tricyclazole], the LD50 with Apis mellifera (dermal) is > 99 µg/piece; in the series with Apis mellifera (oral, unspecified), 30.9 µg/piece; in the series on Colinus virginianus (acute, oral) it was > 2180 mg/kg-day; with Rattus norvegicus (acute, oral, F, mortality), 237 mg/kg-day. Moreover, the NOEC was 1.68 mg/L in the series on Bibionidae; 1.3 mg/L in the series with Daphnia magna; 32 mg/kg in the series with Folsomia candida; 16 mg/kg with Hypoaspis aculeifer; 0.743 mg/L in the series with Pimephales promelas; 250 mg/kg in the series with Tagia sp. (chronic/long-term). Also, the LC50 with Colinus virginianus (acute, oral, diet) was > 1140 mg/kg-day; in the series on Tagia sp. (acute, duration: 14 days, mortality) it was > 1000 mg/kg. Further, the NOAEL (as a rule, the highest tested level that showed no adverse finding) with Colinus virginianus (reproduction developmental) stood at 27.1 mg/kg-day; in the series on Rattus norvegicus (chronic), 5 mg/kg-day. Moreover, the LR50 with Aphidius rhopalosiphi was < 460 g/ha; in the series with Typhlodromus pyri, > 460 g/ha.
